Test results: patent US5215520A, “Method for delivering an active substance topically or percutaneously” (Centre Internationale de Recherches Dermatologiques …, priority 1991, dated 1993)

Columns and labels:
[1] = Pharmacokinetic profile: blood and urine levels after single intravenous injection; format: in vivo, hairless female rats
Procedure: Prior to the in vivo experiments, a study was carried out to determine whether the levels of peptide in urine were significant. To this end, following a single intravenous injection of Thr-Lys-Pro, its levels in blood and urine were measured. This was carried out by an injection of 0.5 cm^3 of an aqueous solution containing 2 nmol/cm^3 of non-radiolabelled peptide and 5 μCi/cm^3 of radiolabelled peptide via the tail vein of five hairless female rats (198±12 g). The rats had been anaesthetised by an intraperitoneal injection of pentobarbital sodium (40 mg/kg). The rats were left in metabolic cages and blood samples were taken at 10, 15, 30 minutes and 1, 2, 3 and 24 hours following the peptide injection. Blood was removed from the retro-orbital sinus of the eye socket by capillary tube. The samples were weighed into a crucible (ashless paper) and allowed to dry overnight. The blood was then oxidized using a tri-carb oxidizer (model 306 sold by Packard Instrument Co. Inc.) and measured for radioactivity. Urine was collected from the cage after 24 hours and also measured for radioactivity.

[2] = rat, in vivo
Procedure: In these experiments, the levels of Thr-Lys-Pro peptide in urine following application of the peptide to the skin were measured.
Electrodes (105, 106) (Ag/AgC1) were tightly fitted to the stoppers (103, 104) and became enclosed within the chambers (101 and 102) when the chambers were closed by replacing the stoppers. The distance between the bottom of the electrode after the stopper has been replaced and the bottom of the chamber is 0.3 cm. The skin surface contact area was 3.80 cm^2 and the axes of the chambers were 42 mm apart. The electrodes were connected to a source of electric current (E). To enable the various experiments to be performed, chambers (101 and 102) were fixed to the skin (S) using a cyanoacrylate glue. […]
After 3 hours the electrodes were removed and the skin washed carefully with deionized water, then dried and stripped 5 times with adhesive tape (3M Co., St. Paul, Minn., U.S.A) and the strips discarded. […] The urine passed in the 24-hour period was collected and counted for radioactivity.
In the method of the invention, the skin was first subjected to 3 hours of electric current as in conventional iontophoresis, except that chamber 101 contained the gel of example 1 without peptide. […] The rats were then left as described previously in their metabolic cages for 24 hours and urine collected and measured for radioactivity. […]

For Thr-Lys-Pro, the “quantity of peptide present in urine” value ([1]; 24 hours after the intravenous injection, radioactivity) was 63.6±8 % of the injected dose, the “quantity of peptide in the blood” value ([1]; single intravenous injection, blood sampled 10 minutes to 24 hours) was “not detectable” and the “systemic absorption of peptide (total quantity in urine) vs passive method without current” value [2] was “greater systemic absorption of peptides than the passive method without application of current”.
